Measurements: ChEMBL document CHEMBL1125698, “Using theoretical descriptors in quantitative structure-activity relationships: some toxicological indices” (J Med Chem, 1991)

Columns and labels:
[1] = Toxicity determined using Tadpole Narcosis Test; details: frog
[2] = Toxicity determined using Konemann's Industrial Pollutants Toxicity Test; details: fish
[3] = Toxicity determined using Golden Orfe Fish Test; details: leuciscus idus
Lithobates pipiens = test: Inhibition of Rana pipiens muscle activity.; format: functional, frog, Muscle tissue
[4] = The toxicity of compound was determined using Konemann's Industrial Pollutants Toxicity Test
[5] = Toxicity determined using Microtox Test; format: ADME, Bacteria

Compound: c1ccc2ccccc2c1
- Log C [1]: -4.225

Compound: Cc1cc(Cl)c(Cl)cc1Cl
- Log LC50 [2]: 0.94

Compound: C=CCCC
- Log C [1]: -2.364

Compound: CCOC(=O)C(C)C
- Log C [1]: -2.3

Compound: Clc1cc(Cl)c(Cl)c(Cl)c1
- Log LC50 [2]: 0.57

Compound: CC(Cl)CCl (stereo not given)
- Log LC50 [2]: 3.01

Compound: CCCC(=O)OCC
- Log C [1]: -2.367

Compound: CCC(=O)CC
- Log C [1]: -1.861

Compound: CCCC(C)=O
- Log C [1]: -1.785

Compound: Clc1cc(Cl)c(Cl)cc1Cl
- Log LC50 [2]: 0.15

Compound: Clc1cccc(Cl)c1Cl
- Log LC50 [2]: 1.11

Compound: c1ccc2c(c1)ccc1ccccc12
- Log C [1]: -5.791

Compound: CCCCOC(=O)CCCC
- Log C [1]: -3.504

Compound: CCCCC(=O)OCC
- Log C [1]: -2.716

Compound: CCCCOCCCC
- Log LC50 [3]: -0.303

Compound: ClC(Cl)C(Cl)Cl [1,1,2,2-TETRACHLOROETHANE]
- Log LC50 [2]: 2.34

Compound: ClCCCl [1,2-DICHLOROETHANE]
- Log C [1]: -2.374

Compound: Clc1cc(Cl)cc(Cl)c1 [1,3,5-TRICHLOROBENZENE]
- Log LC50 [2]: 1.26

Compound: CCCCCCCO [1-HEPTANOL]
- Log LC50 [3]: -0.163
- Log MBC (Lithobates pipiens): 0.2

Compound: CCCCCCO [1-HEXANOL]
- Log LC50 [3]: -0.315
- Log MBC (Lithobates pipiens): 0.56

Compound: CCCCCO [1-PENTANOL]
- Log MBC (Lithobates pipiens): 1.2

Compound: CCCCC(C)O (stereo not given) [2-HEXANOL]
- Log LC50 [3]: -0.359

Compound: CCCC(C)O (stereo not given) [2-PENTANOL]
- Log C [1]: -1.861

Compound: CCC(O)CC [3-PENTANOL]
- Log LC50 [2]: 4.05

Compound: CCCCOC(C)=O [ACETIC ACID BUTYL ESTER]
- Log C [1]: -2.374

Compound: CC(=O)OCC(C)C [ACETIC ACID ISOBUTYL ESTER]
- Log C [1]: -2.33

Compound: CCCCCOC(C)=O [ACETIC ACID PENTYL ESTER]
- Log C [1]: -2.727

Compound: CCCOC(C)=O [ACETIC ACID PROPYL ESTER]
- Log C [1]: -1.969

Compound: CC(C)=O [ACETONE]
- Log LC50 [3]: -2.259
- Log MBC (Lithobates pipiens): 2.6
- Log LC50 [4]: 5.04
- Log C [1]: -0.924

Compound: CC#N [ACETONITRILE]
- Log LC50 [3]: -2.227

Compound: CC(=O)c1ccccc1 [ACETOPHENONE]
- Log C [1]: -2.891

Compound: CCO [ALCOHOL]
- Log MBC (Lithobates pipiens): 2.75
- Log C [1]: -0.484
- Log LC50 [2]: 5.38

Compound: CCC(C)(C)O [AMYLENE HYDRATE]
- Log LC50 [3]: -0.907
- Log C [1]: -1.859

Compound: Nc1ccccc1 [ANILINE]
- Log MBC (Lithobates pipiens): 1.3

Compound: COc1ccccc1 [ANISOLE]
- Log LC50 [3]: -0.305
- Log C [1]: -2.493

Compound: c1ccccc1 [BENZENE]
- Log LC50 [3]: -0.417
- Log LC50 [4]: 2.91
- Log C [1]: -2.905

Compound: OCc1ccccc1 [BENZYL ALCOHOL]
- Log MBC (Lithobates pipiens): 1.3

Compound: Oc1ccc2ccccc2c1 [BETANAPHTHOL]
- Log MBC (Lithobates pipiens): 0

Compound: CBr [BROMOMETHANE]
- Log C [1]: -2.263

Compound: CCC(C)O (stereo not given) [BUTANOL]
- Log LC50 [3]: -1.477
- Log C [1]: -1.433

Compound: CCC(C)=O [BUTANONE]
- Log LC50 [3]: -1.663
- Log C [1]: 1.401

Compound: CCCCO [BUTYL ALCOHOL]
- Log LC50 [3]: -1.432
- Log MBC (Lithobates pipiens): 1.78
- Log C [1]: -1.463

Compound: CCCCCl [BUTYL CHLORIDE]
- Log LC50 [2]: 3.02

Compound: ClC(Cl)(Cl)Cl [CARBON TETRACHLORIDE]
- Log EC50 [5]: -0.22

Compound: Clc1ccccc1 [CHLOROBENZENE]
- Log LC50 [2]: 2.23

Compound: ClC(Cl)Cl [CHLOROFORM]
- Log MBC (Lithobates pipiens): 1.5
- Log C [1]: -3.065

Compound: O=C1CCCCC1 [CYCLOHEXANONE]
- Log LC50 [3]: -0.66

Compound: OC1CCCC1 [CYCLOPENTANOL]
- Log LC50 [3]: -0.97

Compound: O=C1CCCC1 [CYCLOPENTANONE]
- Log LC50 [3]: -1.359

Compound: CCOCC [ETHER]
- Log LC50 [3]: -1.722
- Log MBC (Lithobates pipiens): 1.93
- Log LC50 [4]: 4.46
- Log C [1]: -1.389

Compound: CCOC=O [ETHOXYCARBONYL GROUP]
- Log C [1]: -1.111

Compound: CCOC(C)=O [ETHYL ACETATE]
- Log C [1]: -1.502

Compound: CCCl [ETHYL CHLORIDE]
- Log C [1]: -1.655

Compound: CCOC(=O)CC [ETHYL PROPIONATE]
- Log C [1]: -1.898

Compound: COC=O [FORMIC ACID METHYL ESTER]
- Log C [1]: -1.075

Compound: CCCC(O)CC (stereo not given) [HEXAN-3-OL]
- Log LC50 [3]: -0.363

Compound: CC(C)CO [ISOBUTANOL]
- Log LC50 [3]: -1.43

Compound: CC(C)O [ISOPROPYL ALCOHOL]
- Log LC50 [3]: -2.005
- Log MBC (Lithobates pipiens): 2.55
- Log LC50 [4]: 5.07
- Log C [1]: -0.977

Compound: Cc1cccc(C)c1 [M-XYLENE]
- Log LC50 [2]: 2.55

Compound: Cc1cccc(O)c1 [METACRESOL]
- Log LC50 [3]: -0.694

Compound: CO [METHYL ALCOHOL]
- Log MBC (Lithobates pipiens): 3.09
- Log C [1]: 0.17

Compound: ClCCl [METHYLENE CHLORIDE]
- Log LC50 [2]: 3.54

Compound: O=[N+]([O-])c1ccccc1 [NITROBENZENE]
- Log LC50 [3]: -0.263
- Log MBC (Lithobates pipiens): 0.47

Compound: C[N+](=O)[O-] [NITROMETHANE]
- Log C [1]: -1.08

Compound: Cc1ccccc1C [O-XYLENE]
- Log C [1]: -3.44
- Log LC50 [2]: 2.52

Compound: CCCCCCCCO [OCTANOL]
- Log LC50 [3]: -0.594
- Log MBC (Lithobates pipiens): -0.016
- Log C [1]: -3.148

Compound: CCCCC [PENTANE]
- Log C [1]: -2.649

Compound: Oc1ccccc1 [PHENOL]
- Log LC50 [3]: -0.256
- Log MBC (Lithobates pipiens): 1

Compound: CCCO [PROPANOL]
- Log LC50 [3]: -1.972
- Log MBC (Lithobates pipiens): 2.4
- Log C [1]: -1.021

Compound: c1ccncc1 [PYRIDINE]
- Log MBC (Lithobates pipiens): 1.77

Compound: c1ccc2ncccc2c1 [QUINOLINE]
- Log MBC (Lithobates pipiens): 0.3

Compound: CC(C)(C)O [TERT-BUTANOL]
- Log C [1]: -1.429

Compound: C1CCOC1 [TETRAHYDROFURAN]
- Log LC50 [3]: -1.815

Compound: Cc1ccc(C(C)C)c(O)c1 [THYMOL]
- Log MBC (Lithobates pipiens): -0.52
- Log C [1]: -3.574

Compound: Cc1ccccc1 [TOLUENE]
- Log MBC (Lithobates pipiens): 1
- Log LC50 [2]: 2.87

Compound: CC(Cl)(Cl)Cl [TRICHLOROETHANE]
- Log LC50 [3]: -0.087
- Log LC50 [2]: 2.85

Compound: ClC=C(Cl)Cl [TRICHLOROETHYLENE]
- Log LC50 [3]: -0.293
